Data set [1] concerns PC3 subcutaneous xenograft tumor. The data set can be described thus: In vivo pharmacodynamic study, mouse PC3 subcutaneous xenograft tumor model. The procedure:
Each nude mouse was grafted subcutaneously with 10×10^6 PC3 cells. When the tumor grew to 100-200 mm^3, the compound was administered orally once a day, and the tumor volume was measured twice a week and at the end of treatment. Tumor growth inhibition rate of the compound was calculated according to the following equation: tumor growth inhibition (TGI)=1−(tumor volume on day 17 in treatment group−tumor volume on day 1 in treatment group)/(tumor volume on day 17 in vehicle control group−tumor volume on day 1 in […]).

A short description of data set [2]: In vivo pharmacokinetic experiment in CD-1 female mice. The settings on record: mouse, plasma, CD-1 mice. How it is done:
CD-1 female mice aged 7 to 10 weeks were intravenously administered and orally administered at a dose of 2 mg/kg and 10 mg/kg, respectively. The mice were fasted for at least 12 h before the administration and given food 4 h after the administration, and they were given ad libitum access to water during the experiment. On the day of the experiment, animals in the intravenous group were administered the corresponding compound by single injection via the tail vein at an administration volume of 10 mL/kg. Animals in the oral group were administered the corresponding compound by single intragastric injection at an administration volume of 10 mL/kg. The animals were weighed before administration, and the administration volume was calculated according to the body weight. The sample collection time was 0.083 h (injection group), 0.167 h, 0.5 h, 1 h, 2 h, 4 h, 8 h, and 24 h. About 200 μL of whole blood was collected through the submaxillary venous plexus at each time point and used to prepare plasma for concentration determination by high-performance liquid chromatography-tandem mass spectrometry (LC-MS/MS). All animals were euthanized with CO2 anesthesia after the PK samples were collected at the last time point. The plasma concentrations were processed using a non-compartmental model of Phoenix WinNonlin™ version 8.3 (Certara) pharmacokinetic software, and the pharmacokinetic parameters were calculated using a linear-log trapezoidal method.

The target of the next data set is recombinant protein Src (Homo sapiens (Human), UniProt P12931). The experiment in a line: In vitro assay for inhibiting Src kinase activity (biotin-labeled TK substrate, Sa-XL 665, Cryptate-labeled antibody). In kind it is biochemical. The conditions noted are these: read-out: IC50, inhibitory activity against recombinant protein Src. How it is done: After the compound serially diluted with DMSO and a Src recombinant protein were incubated at room temperature for 10 min, the reaction was initiated by the addition of a biotin-labeled TK substrate and ATP. After the mixture was left to stand at room temperature for 40 min Sa-XL 665 and a Cryptate-labeled antibody were added. The fluorescence values at 615 nm and 665 nm were measured, and the ratio of 665 nm to 615 nm was calculated. The inhibition percentages and IC50 of the compounds were calculated compared to the DMSO group.
Chain of recombinant protein Src (P12931 whole entry, looked up): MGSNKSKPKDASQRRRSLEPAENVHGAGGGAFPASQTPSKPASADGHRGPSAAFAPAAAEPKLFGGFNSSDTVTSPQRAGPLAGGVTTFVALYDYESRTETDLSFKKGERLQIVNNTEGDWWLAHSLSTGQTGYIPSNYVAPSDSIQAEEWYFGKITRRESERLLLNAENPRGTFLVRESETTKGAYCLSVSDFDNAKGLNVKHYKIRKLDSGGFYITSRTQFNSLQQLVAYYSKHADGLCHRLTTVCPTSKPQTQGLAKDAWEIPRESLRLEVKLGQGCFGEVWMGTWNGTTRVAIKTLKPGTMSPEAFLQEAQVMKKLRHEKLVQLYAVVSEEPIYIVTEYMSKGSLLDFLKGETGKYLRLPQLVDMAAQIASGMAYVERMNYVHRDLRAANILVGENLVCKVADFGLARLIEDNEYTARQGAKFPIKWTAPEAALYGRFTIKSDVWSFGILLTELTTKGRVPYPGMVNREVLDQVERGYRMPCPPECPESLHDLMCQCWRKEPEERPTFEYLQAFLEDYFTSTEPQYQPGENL

In the next data set the test system is PC3 cells. The data set can be described thus: In vitro anti-proliferative activity against PC3 cells (agarose, 7 days). In kind it is cell-based. The conditions noted are these: Homo sapiens, PC-3, 168 h, 7 days of incubation. The procedure: PC3 cells were mixed with 0.4% agarose at 1200 cells/well, and the mixture was seeded on 0.6% agarose. The compound serially diluted was added, and the cell number was measured after 7 days of incubation. The inhibition percentages and IC50 of the compounds were calculated compared to the DMSO group.

Data set [3] can be described thus: Stability experiment in aqueous hydrochloric acid solution pH 2 (HPLC). In kind it is physicochemical. How it is done:
5 mg each of compound 59 and compound A was dissolved in an aqueous hydrochloric acid solution (5 mL) with a pH of 2. The mixture was stirred at room temperature. Samples were taken after 0.5 h for HPLC assay using the following assay conditions. The HPLC assay results are shown in Table 7. • Instrument: Agilent 1260 infinity 2 • Column: Xtimate C18 4.6*150 mm,3 um • Temperature:25° C. • Wave length:210 nm/254 nm • phase A: H2O (0.1% TFA) • phase B: MECN (0.1% TFA) • Gradient: […]

From US20250042904A1, “COMPOUNDS USED AS SRC INHIBITORS” (WIGEN BIOMEDICINE TECHNOLOGY (SHANGHAI) CO., LTD., priority 2021, published 2025) come the findings set out here.

In general, AUC(0-t) refers to exposure summed from dosing to a finite time, without extrapolation to infinity. High values mean more exposure, low ones less exposure. As usually defined, the Cmax is the highest concentration seen after dosing. A word on the bioavailability: it is dose-corrected exposure relative to a reference, in per cent. A higher bioavailability goes with good availability. The term half-life denotes the time in which the quantity being followed falls by half. Low values mean fast loss, high ones slow loss. As a reminder, the clearance is the rate of elimination divided by the concentration. For orientation: IC50 means the midpoint of a concentration-inhibition curve.

Bounds are passed on as bounds.

For `COc1cc(-c2nn(CCN3CCC(N(C)C)CC3)c3ncnc(N)c23)ccc1NC(=O)OC1(C)CC1` [Compound 59], the “TGI (tumor growth inhibition)” value in data set [1] (day 17, oral once a day, 50 mg/kg (day 1-day 7), 80 mg/kg (day 8-day 18)) was 53%. The “Tumor volume on day 17 of treatment” value in data set [1] (nude mice, oral once a day, 50 mg/kg (day 1-day 7), 80 mg/kg (day 8-day 18)) stood at 318 mm^3. The “Tumor volume on day 1 of treatment” value in data set [1] (nude mice, oral once a day, baseline day 1) came out at 120 mm^3. In data set [2] (oral administration 10 mg/kg), the AUC(0-t) turned out to be 491 ng·h/mL, the peak concentration (Cmax) is 88.9 ng/mL, the bioavailability was found to be 32.1% and the half-life is 5.3 h. In data set [2] (iv, injection 2 mg/kg), the AUC(0-t) came to 300 ng·h/mL, the clearance is 1770 mL/min/kg and the half-life is 5.9 h. The Vd in data set [2] (iv, injection 2 mg/kg, read-out: Vdss) worked out at 35.6 L/kg. In addition, the IC50 at recombinant protein Src was no more than 10 nM. In the data set with PC3 cells, this molecule had a half-inhibitory concentration (IC50) of 5.3 nM. For the same molecule, the Initial purity in data set [3] (before acid treatment (baseline)) was determined as 96.35%. Also, the “Purity after stirring in an aqueous hydrochloric acid solution with a pH of 2 for 0.5 h” value in data set [3] (pH 2, room temperature, 0.5 h) came to 96.16%.
